Test results: patent publication US20210300940A1 (Merck Patent GmbH, priority 2018, published 2021)

How the values were obtained:
[1] = target: T1, TLR7 (Homo sapiens, UniProt Q9NYK1); assay: HEK/293 TLR7 Cell Assay; assay type: cell-based; conditions: TLR7/NFKb HEK cells, R848 agonist 10 uM final concentration, Steady-Glo readout; read-out: TLR7 potency
T1 construct: expressed in transfected cells; host or cells: HEK/293 cells carrying TLR7 and an NF-kB luciferase reporter
T1 sequence (Q9NYK1 27-1049): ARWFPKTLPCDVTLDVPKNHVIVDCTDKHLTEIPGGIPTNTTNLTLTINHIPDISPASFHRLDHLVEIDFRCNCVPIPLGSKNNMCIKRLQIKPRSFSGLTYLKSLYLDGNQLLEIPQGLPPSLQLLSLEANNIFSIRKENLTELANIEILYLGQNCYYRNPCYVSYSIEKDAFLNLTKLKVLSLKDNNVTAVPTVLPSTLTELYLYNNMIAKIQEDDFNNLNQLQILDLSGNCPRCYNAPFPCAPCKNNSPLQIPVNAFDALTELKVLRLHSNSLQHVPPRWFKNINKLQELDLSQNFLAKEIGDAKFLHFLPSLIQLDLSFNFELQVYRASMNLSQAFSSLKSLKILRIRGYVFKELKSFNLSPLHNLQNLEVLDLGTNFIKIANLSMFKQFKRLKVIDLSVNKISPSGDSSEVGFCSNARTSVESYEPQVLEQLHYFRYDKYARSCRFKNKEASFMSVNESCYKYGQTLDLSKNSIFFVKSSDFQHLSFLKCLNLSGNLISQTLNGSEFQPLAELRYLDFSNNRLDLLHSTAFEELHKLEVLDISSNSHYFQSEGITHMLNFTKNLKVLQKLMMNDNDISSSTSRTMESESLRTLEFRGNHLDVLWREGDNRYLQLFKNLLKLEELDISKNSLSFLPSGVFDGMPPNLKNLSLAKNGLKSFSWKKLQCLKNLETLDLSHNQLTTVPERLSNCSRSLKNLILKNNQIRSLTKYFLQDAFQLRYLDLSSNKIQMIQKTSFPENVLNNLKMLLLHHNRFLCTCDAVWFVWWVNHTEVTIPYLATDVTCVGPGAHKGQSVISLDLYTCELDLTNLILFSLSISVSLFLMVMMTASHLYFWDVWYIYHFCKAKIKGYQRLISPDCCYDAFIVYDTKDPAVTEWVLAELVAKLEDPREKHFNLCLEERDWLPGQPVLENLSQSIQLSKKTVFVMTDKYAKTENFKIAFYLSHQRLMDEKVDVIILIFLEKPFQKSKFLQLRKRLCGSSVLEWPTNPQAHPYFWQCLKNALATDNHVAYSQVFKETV
Method in brief: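 TLR7/NF-κB reporter HEK293 cells, 5000/well, cultured 24 h, then preincubated 30 min with compound before R848 agonist (10 uM final). After 5 h stimulation, Steady-Glo luciferase luminescence read.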

[2] = target: T2, TLR8 (Homo sapiens, UniProt Q9NR97); assay: HEK/293 TLR8 Cell Assay; assay type: cell-based; conditions: HEK cells, R848 agonist 30 uM final concentration, Steady-Glo readout; read-out: TLR8 potency
T2 construct: expressed in transfected cells; host or cells: HEK/293 reporter cells (NF-kB luciferase)
T2 sequence (Q9NR97 27-1041): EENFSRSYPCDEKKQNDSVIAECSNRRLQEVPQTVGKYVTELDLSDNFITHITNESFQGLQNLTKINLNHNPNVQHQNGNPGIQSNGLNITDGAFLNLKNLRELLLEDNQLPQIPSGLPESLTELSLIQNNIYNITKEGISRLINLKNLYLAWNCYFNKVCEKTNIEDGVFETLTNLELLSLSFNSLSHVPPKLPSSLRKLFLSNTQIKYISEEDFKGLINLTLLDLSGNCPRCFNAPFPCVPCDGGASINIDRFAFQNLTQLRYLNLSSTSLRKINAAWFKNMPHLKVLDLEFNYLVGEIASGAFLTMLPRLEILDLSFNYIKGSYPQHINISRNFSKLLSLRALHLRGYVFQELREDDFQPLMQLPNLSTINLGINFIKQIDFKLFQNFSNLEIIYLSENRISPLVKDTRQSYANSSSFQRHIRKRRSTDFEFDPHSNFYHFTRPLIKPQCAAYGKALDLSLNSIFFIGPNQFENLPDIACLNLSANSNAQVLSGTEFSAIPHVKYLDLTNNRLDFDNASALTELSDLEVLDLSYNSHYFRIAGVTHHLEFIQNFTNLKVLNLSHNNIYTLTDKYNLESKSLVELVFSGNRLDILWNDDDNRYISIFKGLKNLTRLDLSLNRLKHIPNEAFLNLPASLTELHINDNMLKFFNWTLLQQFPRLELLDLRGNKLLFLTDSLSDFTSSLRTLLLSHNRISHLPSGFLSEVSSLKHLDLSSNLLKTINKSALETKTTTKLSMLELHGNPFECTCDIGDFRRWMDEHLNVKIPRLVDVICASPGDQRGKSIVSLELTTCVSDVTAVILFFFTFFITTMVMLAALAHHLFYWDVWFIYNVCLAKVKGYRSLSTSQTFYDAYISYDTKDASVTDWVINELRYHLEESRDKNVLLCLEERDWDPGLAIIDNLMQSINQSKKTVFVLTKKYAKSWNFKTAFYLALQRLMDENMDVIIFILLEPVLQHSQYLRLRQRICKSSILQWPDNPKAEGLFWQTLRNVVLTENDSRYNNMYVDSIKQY

SMILES | IC50 [1] [nM] | IC50 [2] [nM]
C[C@@H]1CN(c2ccc(C#N)c3nccnc23)C[C@H](C(=O)N[C@@H]2CCN(CC3CC3)C2)O1 [Example 323, (2R,6R)-4-(8-Cyano-quinoxalin-5-yl)-6-methyl-morpholine-2-carboxylic acid ((R)-cyclopropylmethyl-pyrrolidin-3-yl)-amide] | < 75 | < 75
C[C@@H]1CN(c2ccc(C(F)(F)F)c3ncccc23)C[C@H](CN2CCC(N3CCCC3)CC2)O1 [Example 328, 5-[(2R,6S)-2-Methyl-6-(4-pyrrolidin-1-yl-piperidin-1-ylmethyl)-morpholin-4-yl]-8-trifluoromethyl-quinoline] | < 75 | 75 to 150
C[C@@H]1CN(c2ccc(C(F)(F)F)c3ncccc23)C[C@H](CN2CCC(N3CCOCC3)CC2)O1 [Example 329, 5-[(2R,6S)-2-Methyl-6-(4-morpholin-4-yl-piperidin-1-ylmethyl)-morpholin-4-yl]-8-trifluoromethyl-quinoline] | 75 to 150 | < 75
C[C@@H]1CN(c2ccc(C(F)(F)F)c3ncccc23)C[C@H](CN2CCN(C)CC2)O1 [Example 330, 5-[(2R,6S)-2-Methyl-6-(4-methyl-piperazin-1-ylmethyl)-morpholin-4-yl]-8-trifluoromethyl-quinoline] | < 75 | < 75
C[C@@H]1CN(c2ccc(C(F)(F)F)c3ncccc23)C[C@H](CN2CCC(C(C)(C)O)C2)O1 (stereo partly drawn) [Example 331, 2-{1-[(2S,6R)-6-Methyl-4-(8-trifluoromethyl-quinolin-5-yl)-morpholin-2-ylmethyl]-pyrrolidin-3-yl}-propan-2-ol] | < 75 | 75 to 150
C[C@@H]1CN(c2cnc(C#N)c3ncccc23)C[C@H](CNC(=O)C2(F)CCNC2)O1 (stereo partly drawn) [Example 332, N-{[(2S,6R)-4-(8-cyano-1,7-naphthyridin-5-yl)-6-methylmorpholin-2-yl]methyl}-3-fluoropyrrolidine-3-carboxamide] | 75 to 150 | < 75
C[C@@H]1CN(c2ccc(C#N)c3ncncc23)C[C@H](CNC(=O)C2(F)CCNC2)O1 (stereo partly drawn) [Example 343, N-{[(2S,6R)-4-(8-cyanoquinazolin-5-yl)-6-methylmorpholin-2-yl]methyl}-3-fluoropyrrolidine-3-carboxamide] | < 75 | < 75
C[C@@H]1CN(c2ccc(C#N)c3ncncc23)C[C@H](C(=O)NCC2(F)CCN(C)CC2)O1 [Example 346, (2R,6R)-4-(8-Cyano-quinazolin-5-yl)-6-methyl-morpholine-2-carboxylic acid (4-fluoro-1-methyl-piperidin-4-ylmethyl)-amide] | < 75 | < 75
C[C@@H]1CN(c2ccc(C#N)c3ncncc23)C[C@H](C(=O)NC2CCN(C)C3(CCC3)C2)O1 (stereo partly drawn) [Example 347, (2R,6R)-4-(8-Cyano-quinazolin-5-yl)-6-methyl-morpholine-2-carboxylic acid (5-methyl-5-aza-spiro[3.5]non-8-yl)-amide] | < 75 | < 75

Further lines, results first:

IC50 [1] [nM] | IC50 [2] [nM] | SMILES
75 to 150 | < 75 | C[C@@H]1CN(c2cnc(C#N)c3ncccc23)C[C@H](CNC(=O)C2(F)CCCNC2)O1 (stereo partly drawn) [Example 333, N-{[(2S,6R)-4-(8-cyano-1,7-naphthyridin-5-yl)-6-methylmorpholin-2-yl]methyl}-3-fluoropiperidine-3-carboxamide]
< 75 | < 75 | Cc1ccc(N2C[C@H](CNC(=O)CC3CCN(C)CC3)O[C@H](C)C2)c2cccnc12 [Example 342, N-{[(2S,6R)-6-methyl-4-(8-methylquinolin-5-yl)morpholin-2-yl]methyl}-2-(1-methylpiperidin-4-yl)acetamide]
< 75 | > 150 | C[C@@H]1CN(c2cnc(C#N)c3ncccc23)C[C@H](C(=O)NCC2(F)CCN(C)CC2)O1 [Example 348, (2R,6R)-4-(8-Cyano-[1,7]naphthyridin-5-yl)-6-methyl-morpholine-2-carboxylic acid (4-fluoro-1-methyl-piperidin-4-ylmethyl)-amide]
< 75 | < 75 | C[C@@H]1CN(c2cnc(C#N)c3ncccc23)C[C@H](Cn2cc(C(=O)O)cn2)O1 [Example 365, 1-[(2R,6R)-4-(8-Cyano-[1,7]naphthyridin-5-yl)-6-methyl-morpholin-2-ylmethyl]-1H-pyrazole-4-carboxylic acid]
< 75 | < 75 | C[C@@H]1CN(c2cnc(C#N)c3ncccc23)C[C@H](CN2CCNCC2)O1 [Example 366, 5-((2R,6S)-2-Methyl-6-piperazin-1-ylmethyl-morpholin-4-yl)-[1,7]naphthyridine-8-carbonitrile]
75 to 150 | < 75 | C[C@@H]1CN(c2cnc(C#N)c3ncccc23)C[C@H](CN2CCC(N3CCOCC3)CC2)O1 [Example 367, 5-[(2R,6S)-2-Methyl-6-(4-morpholin-4-yl-piperidin-1-ylmethyl)-morpholin-4-yl]-[1,7]naphthyridine-8-carbonitrile]
< 75 | < 75 | C[C@@H]1CN(c2cnc(C#N)c3ncccc23)C[C@H](CN2CCN(C)CC2)O1 [Example 368, 5-[(2R,6S)-2-Methyl-6-(4-methyl-piperazin-1-ylmethyl)-morpholin-4-yl]-naphthyridine-8-carbonitrile]
< 75 | < 75 | C[C@@H]1CN(c2cnc(C#N)c3ncccc23)C[C@H](CN2CCC(N)C(F)(F)C2)O1 (stereo partly drawn) [Example 369, 5-[(2S,6R)-2-(4-Amino-3,3-difluoro-piperidin-1-ylmethyl)-6-methyl-morpholin-4-yl]-[1,7]naphthyridine-8-carbonitrile]
< 75 | < 75 | C[C@@H]1CN(c2cnc(C#N)c3ncccc23)C[C@H](CN2CCC(F)(CN)CC2)O1 [Example 370, 5-[(2S,6R)-2-(4-Aminomethyl-4-fluoro-piperidin-1-ylmethyl)-6-methyl-morpholin-4-yl]-[1,7]naphthyridine-8-carbonitrile]
> 150 | < 75 | CCN1CCN(C[C@H]2CN(c3cnc(C#N)c4ncccc34)C[C@@H](C)O2)CC1 [Example 371, 5-[(2S,6R)-2-(4-Ethyl-piperazin-1-ylmethyl)-6-methyl-morpholin-4-yl]-naphthyridine-8-carbonitrile]
75 to 150 | < 75 | C[C@@H]1CN(c2cnc(C#N)c3ncccc23)C[C@H](CN2CCN(CCO)CC2)O1 [Example 372, 5-{(2S,6R)-2-[4-(2-Hydroxy-ethyl)-piperazin-1-ylmethyl]-6-methyl-morpholin-4-yl}-[1,7]naphthyridine-8-carbonitrile]
